{"source": "patent US9469650B2", "about": "“Melampomagnolide B derivatives” (BOARD OF TRUSTEES OF THE UNIVERSITY OF ARKANSAS, priority 2013, dated 2016)", "key": {"[1]": {"system": "K-562", "test": "panel of 60 human tumor cell lines, growth inhibition (Leukemia)"}, "[2]": {"system": "UACC-257", "test": "panel of 60 human tumor cell lines, growth inhibition (Melanoma)"}, "[3]": {"system": "SF-268", "test": "panel of 60 human tumor cell lines, growth inhibition (CNS Cancer)", "conditions": "Homo sapiens"}, "[4]": {"system": "SF-295", "test": "panel of 60 human tumor cell lines, growth inhibition (CNS Cancer)", "conditions": "Homo sapiens"}, "[5]": {"system": "SNB-75", "test": "panel of 60 human tumor cell lines, growth inhibition (CNS Cancer)", "conditions": "Homo sapiens"}, "[6]": {"system": "HCT-116", "test": "panel of 60 human tumor cell lines, growth inhibition (Colon Cancer)", "conditions": "Homo sapiens"}, "[7]": {"system": "HCT-15", "test": "panel of 60 human tumor cell lines, growth inhibition (Colon Cancer)", "conditions": "Homo sapiens"}, "[8]": {"system": "HT29", "test": "panel of 60 human tumor cell lines, growth inhibition (Colon Cancer)", "conditions": "for Percent Growth: HT29"}, "[9]": {"system": "SW-620", "test": "panel of 60 human tumor cell lines, growth inhibition (Colon Cancer)", "conditions": "Homo sapiens"}, "[10]": {"system": "TK-10", "test": "panel of 60 human tumor cell lines, growth inhibition (Renal Cancer)", "conditions": "Homo sapiens"}, "[11]": {"system": "HS 578T", "test": "panel of 60 human tumor cell lines, growth inhibition (Breast Cancer)", "conditions": "Homo sapiens, Hs-578T"}, "[12]": {"system": "BT-549", "test": "panel of 60 human tumor cell lines, growth inhibition (Breast Cancer)", "conditions": "Homo sapiens"}, "[13]": {"system": "T-47D", "test": "panel of 60 human tumor cell lines, growth inhibition (Breast Cancer)", "conditions": "Homo sapiens, T47D"}, "[14]": {"system": "OVCAR-3", "test": "panel of 60 human tumor cell lines, growth inhibition (Ovarian Cancer)"}, "[15]": {"system": "OVCAR-5", "test": "panel of 60 human tumor cell lines, growth inhibition (Ovarian Cancer)", "conditions": "Homo sapiens"}, "[16]": {"system": "A549/ATCC", "test": "panel of 60 human tumor cell lines, growth inhibition (Non-Small Cell Lung Cancer)", "conditions": "Homo sapiens"}, "[17]": {"system": "NCI-H322M", "test": "panel of 60 human tumor cell lines, growth inhibition (Non-Small Cell Lung Cancer)", "conditions": "Homo sapiens"}, "[18]": {"system": "NCI-H522", "test": "panel of 60 human tumor cell lines, growth inhibition (Non-Small Cell Lung Cancer)", "conditions": "Homo sapiens"}}}
{"compound": "C=C1C(=O)O[C@H]2[C@H]1CC/C(COC(=O)OCCN(C)C)=C\\CC[C@@]1(C)O[C@@H]21", "note": "[JVM 2-35]", "values": [{"measurement": "GI50", "setting": "[1]; Homo sapiens, K562", "value": 5.55, "unit": "µM"}, {"measurement": "CC50", "setting": "[1]; Homo sapiens, K562, read-out: LC50", "value": "> 100", "unit": "µM"}, {"measurement": "Percent Growth", "setting": "[1]; K-562, Log10 Concentration −4.0", "value": "−33", "unit": "%"}, {"measurement": "Percent Growth", "setting": "[1]; K-562, Log10 Concentration −5.0", "value": 30, "unit": "%"}, {"measurement": "Percent Growth", "setting": "[1]; K-562, Log10 Concentration −6.0", "value": 107, "unit": "%"}, {"measurement": "Percent Growth", "setting": "[1]; K-562, Log10 Concentration −7.0", "value": 96, "unit": "%"}, {"measurement": "Percent Growth", "setting": "[1]; K-562, Log10 Concentration −8.0", "value": 101, "unit": "%"}, {"measurement": "TGI", "setting": "[1]; K-562, NCI five dose", "value": "3.00E−5"}, {"measurement": "GI50", "setting": "[2]; Homo sapiens, UACC-257", "value": 10.2, "unit": "µM"}, {"measurement": "CC50", "setting": "[2]; Homo sapiens, UACC-257, read-out: LC50", "value": 55.2, "unit": "µM"}, {"measurement": "Percent Growth", "setting": "[2]; UACC-257, Log10 Concentration −4.0", "value": "−85", "unit": "%"}, {"measurement": "Percent Growth", "setting": "[2]; UACC-257, Log10 Concentration −5.0", "value": 51, "unit": "%"}, {"measurement": "Percent Growth", "setting": "[2]; UACC-257, Log10 Concentration −6.0", "value": 92, "unit": "%"}, {"measurement": "Percent Growth", "setting": "[2]; UACC-257, Log10 Concentration −7.0", "value": 86, "unit": "%"}, {"measurement": "Percent Growth", "setting": "[2]; UACC-257, Log10 Concentration −8.0", "value": 93, "unit": "%"}, {"measurement": "TGI", "setting": "[2]; UACC-257, NCI five dose", "value": "2.38E−5"}, {"measurement": "GI50", "setting": "[3]; SF-268", "value": 11.7, "unit": "µM"}, {"measurement": "CC50", "setting": "[3]; SF-268, read-out: LC50", "value": 69.3, "unit": "µM"}, {"measurement": "IC (TGI)", "setting": "[3]; SF-268, read-out: TGI", "value": 28.5, "unit": "µM"}, {"measurement": "GI50", "setting": "[4]; SF-295", "value": 24.7, "unit": "µM"}, {"measurement": "CC50", "setting": "[4]; SF-295, read-out: LC50", "value": "> 100", "unit": "µM"}, {"measurement": "IC (TGI)", "setting": "[4]; SF-295, read-out: TGI", "value": "> 100", "unit": "µM"}, {"measurement": "GI50", "setting": "[5]; SNB-75", "value": 4.96, "unit": "µM"}, {"measurement": "CC50", "setting": "[5]; SNB-75, read-out: LC50", "value": 50.7, "unit": "µM"}, {"measurement": "IC (TGI)", "setting": "[5]; SNB-75, read-out: TGI", "value": 21.5, "unit": "µM"}, {"measurement": "GI50", "setting": "[6]; HCT-116, HCT-116, NCI five dose", "value": 2660, "unit": "nM"}, {"measurement": "CC50", "setting": "[6]; HCT-116, read-out: LC50", "value": 33.6, "unit": "µM"}, {"measurement": "IC (TGI)", "setting": "[6]; HCT-116, read-out: TGI", "value": 11.3, "unit": "µM"}, {"measurement": "GI50", "setting": "[7]; HCT-15", "value": 2780, "unit": "nM"}, {"measurement": "CC50", "setting": "[7]; HCT-15, read-out: LC50", "value": 44.3, "unit": "µM"}, {"measurement": "IC (TGI)", "setting": "[7]; HCT-15, read-out: TGI", "value": 12.8, "unit": "µM"}, {"measurement": "Percent Growth", "setting": "[8]; Log10 Concentration −4.0", "value": "−29", "unit": "%"}, {"measurement": "Percent Growth", "setting": "[8]; Log10 Concentration −5.0", "value": 91, "unit": "%"}, {"measurement": "Percent Growth", "setting": "[8]; Log10 Concentration −6.0", "value": 98, "unit": "%"}, {"measurement": "Percent Growth", "setting": "[8]; Log10 Concentration −7.0", "value": 99, "unit": "%"}, {"measurement": "Percent Growth", "setting": "[8]; Log10 Concentration −8.0", "value": 98, "unit": "%"}, {"measurement": "GI50", "setting": "[8]; Homo sapiens, HT-29", "value": 21.8, "unit": "µM"}, {"measurement": "CC50", "setting": "[8]; Homo sapiens, HT-29, read-out: LC50", "value": "> 100", "unit": "µM"}, {"measurement": "IC (TGI)", "setting": "[8]; Homo sapiens, HT-29, read-out: TGI", "value": 57.2, "unit": "µM"}, {"measurement": "GI50", "setting": "[9]; SW-620, SW-620, NCI five dose", "value": 3.58, "unit": "µM"}, {"measurement": "CC50", "setting": "[9]; SW-620, read-out: LC50", "value": 50.6, "unit": "µM"}, {"measurement": "IC (TGI)", "setting": "[9]; SW-620, read-out: TGI", "value": 15, "unit": "µM"}, {"measurement": "GI50", "setting": "[10]; TK-10, TK-10, NCI five dose", "value": 3.92, "unit": "µM"}, {"measurement": "CC50", "setting": "[10]; TK-10, read-out: LC50", "value": 43.8, "unit": "µM"}, {"measurement": "IC (TGI)", "setting": "[10]; TK-10, read-out: TGI", "value": 15.1, "unit": "µM"}, {"measurement": "GI50", "setting": "[11]", "value": 13.6, "unit": "µM"}, {"measurement": "CC50", "setting": "[11]; read-out: LC50", "value": "> 100", "unit": "µM"}, {"measurement": "IC (TGI)", "setting": "[11]; read-out: TGI", "value": 59.3, "unit": "µM"}, {"measurement": "GI50", "setting": "[12]; BT-549", "value": 5.82, "unit": "µM"}, {"measurement": "CC50", "setting": "[12]; BT-549, read-out: LC50", "value": 44.8, "unit": "µM"}, {"measurement": "IC (TGI)", "setting": "[12]; BT-549, read-out: TGI", "value": 19.5, "unit": "µM"}, {"measurement": "GI50", "setting": "[13]", "value": 2950, "unit": "nM"}, {"measurement": "CC50", "setting": "[13]; read-out: LC50", "value": 58.8, "unit": "µM"}, {"measurement": "IC (TGI)", "setting": "[13]; read-out: TGI", "value": 12.4, "unit": "µM"}, {"measurement": "GI50", "setting": "[14]; Homo sapiens, OVCAR-3", "value": 3.31, "unit": "µM"}, {"measurement": "CC50", "setting": "[14]; Homo sapiens, OVCAR-3, read-out: LC50", "value": 35.3, "unit": "µM"}, {"measurement": "IC (TGI)", "setting": "[14]; Homo sapiens, OVCAR-3, read-out: TGI", "value": 11.5, "unit": "µM"}, {"measurement": "Percent Growth", "setting": "[14]; OVCAR-3, Log10 Concentration −4.0", "value": "−96", "unit": "%"}, {"measurement": "Percent Growth", "setting": "[14]; OVCAR-3, Log10 Concentration −5.0", "value": 6, "unit": "%"}, {"measurement": "Percent Growth", "setting": "[14]; OVCAR-3, Log10 Concentration −6.0", "value": 97, "unit": "%"}, {"measurement": "Percent Growth", "setting": "[14]; OVCAR-3, Log10 Concentration −7.0", "value": 106, "unit": "%"}, {"measurement": "Percent Growth", "setting": "[14]; OVCAR-3, Log10 Concentration −8.0", "value": 98, "unit": "%"}, {"measurement": "GI50", "setting": "[15]; OVCAR-5", "value": 13.1, "unit": "µM"}, {"measurement": "CC50", "setting": "[15]; OVCAR-5, read-out: LC50", "value": 57, "unit": "µM"}, {"measurement": "IC (TGI)", "setting": "[15]; OVCAR-5, read-out: TGI", "value": 27.3, "unit": "µM"}, {"measurement": "GI50", "setting": "[16]; A549", "value": 16.3, "unit": "µM"}, {"measurement": "CC50", "setting": "[16]; A549, read-out: LC50", "value": 71.6, "unit": "µM"}, {"measurement": "IC (TGI)", "setting": "[16]; A549, read-out: TGI", "value": 34.2, "unit": "µM"}, {"measurement": "GI50", "setting": "[17]", "value": 28.7, "unit": "µM"}, {"measurement": "CC50", "setting": "[17]; read-out: LC50", "value": "> 100", "unit": "µM"}, {"measurement": "IC (TGI)", "setting": "[17]; read-out: TGI", "value": "> 100", "unit": "µM"}, {"measurement": "GI50", "setting": "[18]; NCI-H522", "value": 1500, "unit": "nM"}, {"measurement": "CC50", "setting": "[18]; NCI-H522, read-out: LC50", "value": 9.57, "unit": "µM"}, {"measurement": "IC (TGI)", "setting": "[18]; NCI-H522, read-out: TGI", "value": 3.79, "unit": "µM"}]}
